Experimental data from patent publication US20220356472A1, “METHODS AND COMPOSITIONS FOR TYPE 2 DIABETES THERAPY” (Sanford Burnham Prebys Medical Discovery Institute, priority 2019, published 2022).

What was measured:
Type in all cases: cell-based, mouse
[1] = tested on: islets isolated from WT C57BL/6 mice; assay: Gene expression in isolated islets treated with compounds
Experimental: For this purpose, the effect of a membrane-permeable intracellular Ca^2+-chelator, BAPTA-AM was tested on islets isolated from WT C57BL/6 mice. An overnight incubation with BAPTA-AM (10 μM) reduced both Ins1 and Ins2 mRNA levels (FIG. 6A, “Insulin” panel, Ctrl versus BAPTA-AM). […] On the other hand, tunicamycin (Tm, 0.5 μg/mL) in combination with BAPTA-AM rescued both Ins1 and Ins2 mRNA levels. Concomitantly, Chop and sXBP1 mRNAs, as well as MP mRNA were induced by Tm treatment (FIG. 6A, BAPTA-AM columns versus BAPTA/Tm columns).

[2] = tested on: islets isolated from WT C57BL/6 mice; assay: as above; details: HFn 50 nM, vs Ctrl
WT and Chop βKO islets = assay: Ins1/Ins2 transcription in independent batch of islets treated with tunicamycin; details: tunicamycin 5 μg/mL
[3] = BAPTA-AM 10 μM, overnight incubation, vs Ctrl
[4] = Tm 0.5 μg/mL in combination with BAPTA-AM, vs BAPTA-AM

## CC(=O)OCOC(=O)CN(CC(=O)OCOC(C)=O)c1ccccc1OCCOc1ccccc1N(CC(=O)OCOC(C)=O)CC(=O)OCOC(C)=O [BAPTA-AM]
[1]; [3]
  Chop level: reduced
  Ins1 mRNA level: reduced
  Ins2 mRNA level: reduced
  sXBP1 level: reduced

## O=C(CC1NCCCC1O)Cn1cnc2cc(Br)c(Cl)cc2c1=O (centres unmarked) [halofuginone]
[2]
  ATF4 induction: pronounced ATF4 and Chop induction
  Chop induction: pronounced ATF4 and Chop induction
  Ins1 mRNA: reduced
  Ins2 mRNA: reduced

## tunicamycin
[1]; [4]
  Chop mRNA: induced
  Ins1 mRNA level: rescued
  Ins2 mRNA level: rescued
  MP mRNA: induced
  sXBP1 mRNA: induced
WT and Chop βKO islets
  Ins1/Ins2 transcription: positive regulation
